# Assay results reported in patent US20230348459A1, “PYRROLIDINE COMPOUND AND USE THEREOF” (SIMCERE PHARMACEUTICAL CO., LTD., priority 2020, published 2023).
# How the values were obtained:
# [1] = molecular target: estrogen receptors in MCF7 cells (Homo sapiens (Human), UniProt P03372); experiment: Degradation of estrogen receptors in MCF7 cells (in-cell western); format: cell-based; settings: for DC50: 24 hours treatment, read-out: ER level DC50; for Dmax: 24 hours, 0.1 µM fulvestrant = 100% degradation control, read-out: Maximum degradation rate
# Chain of estrogen receptors in MCF7 cells (P03372 whole entry): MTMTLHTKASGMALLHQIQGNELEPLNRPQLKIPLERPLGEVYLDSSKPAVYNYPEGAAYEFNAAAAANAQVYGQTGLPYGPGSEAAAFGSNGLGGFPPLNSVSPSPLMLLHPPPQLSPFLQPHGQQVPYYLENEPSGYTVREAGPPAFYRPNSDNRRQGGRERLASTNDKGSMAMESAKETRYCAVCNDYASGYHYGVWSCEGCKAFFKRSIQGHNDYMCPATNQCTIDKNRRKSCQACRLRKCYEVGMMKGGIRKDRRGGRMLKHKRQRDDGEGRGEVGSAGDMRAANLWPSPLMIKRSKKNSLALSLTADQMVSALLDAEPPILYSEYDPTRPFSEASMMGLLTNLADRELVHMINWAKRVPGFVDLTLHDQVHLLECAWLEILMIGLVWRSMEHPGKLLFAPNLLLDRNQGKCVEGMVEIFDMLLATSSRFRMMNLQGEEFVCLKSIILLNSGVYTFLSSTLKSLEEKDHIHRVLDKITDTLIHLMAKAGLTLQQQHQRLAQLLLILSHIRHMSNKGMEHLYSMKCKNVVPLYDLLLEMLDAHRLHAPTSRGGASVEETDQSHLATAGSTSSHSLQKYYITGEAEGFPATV
# Method: The purpose of the experiment is to determine the degradation activity of the compounds of the present invention on endogenously expressed estrogen receptors in MCF7 cells, and to evaluate the activity of the compounds according to DC50 and maximum degradation efficiency.
# MCF7 cells (ATCC, HTB-22) were cultured in DMEM (Gibco, 11995-065) complete medium containing 10% fetal bovine serum. On the first day of the experiment, MCF7 cells were inoculated in a 384-well plate at a density of 3000 cells/well using the complete medium, and cultured in a 37° C., 5% CO2 cell incubator. The compounds to be tested were dissolved in DMSO with a stock concentration of 10 mM, the solution was diluted with Echo 550 (Labcyte Inc.) and added to the cell culture plate. Each compound with the starting concentration for treatment of 100 nM was subjected to 3-fold gradient dilution with 9 concentration points. A blank control containing 0.5% DMSO was set, and double replicate wells as controls were set at each concentration point. The culture was cultured in a 37° C., 5% CO2 cell incubator for 24 hours. Paraformaldehyde was added to the cell culture medium in each cell culture well, and the final concentration of paraformaldehyde was about 3.7% to fix the cells. After the mixture was reacted for 30 minutes, the supernatant was discarded, and 50 µL of PBS was added to each well for washing once. The cells were treated with PBS containing 0.5% v/v Tween-20 for 30 minutes, and washed with PBS once. A blocking solution (PBS containing 5% BSA, 0.05% Tween-20) was added, and the mixture was incubated at room temperature for 1 hour. The blocking solution was removed, a mixture solution of primary antibodies (anti-ER mAb, Estrogen Receptor α (D8H8) Rabbit mAb, GST, # 8644S, 1 : 1000 dilution; anti-GAPDH mAb, GAPDH(D4C6R) Mouse mAb, GST, #97166S, 1 : 2000 dilution) was added, and the mixture was incubated at room temperature for 3 hours. The culture was washed with PBST (PBS containing 0.05% Tween-20) 3 times. Secondary antibodies for detection (800CW-goat anti-rabbit IgG, LI-COR, P/N: 926-32211, 1 : 1000 dilution; 680RD-goat anti-mouse IgG, LI-COR, #925-68070, 1 : 1000 dilution) were added, and the mixture was incubated at room temperature and in the dark for 45 minutes. After washing with PBST 3 times, the fluorescence signal of each well was read using Odyssey CLx, and the value of Chanel 800 (ER)/Chanel 680 (GAPDH) was calculated. The wells treated with 0.1 µM fulvestrant were used as the 100% degradation control, and the degradation rate at each concentration point was calculated. The data were analyzed and processed by XlLfit, and the degradation activity DC50 and the maximum degradation rate Imax of each compound were calculated.
# MCF7 cells = experiment: Inhibition of the proliferation of MCF7 cells (CellTiter-Glo); format: cell-based; settings: Homo sapiens, MCF7, 168 h; 7 days treatment; read-out: MCF-7 cell proliferation inhibition IC50
# Method: The purpose of the experiment is to determine the inhibitory effect of the compounds of the present invention on the proliferation of MCF7 cells in vitro, and to evaluate the activity of the compounds according to IC50 and maximum inhibitory efficiency.
# MCF7 cells (ATCC, HTB-22) were cultured in DMEM (Gibco, 11995-065) complete medium containing 10% fetal bovine serum. On the first day of the experiment, MCF7 cells were inoculated in a 384-well plate at a density of 500 cells/well using the complete medium, and cultured in a 37° C., 5% CO2 cell incubator overnight. The next day, the compounds to be tested were added for drug treatment, and the compound solution with a stock concentration of 10 mM was diluted with Echo550 (Labcyte Inc.) and transferred to each cell culture well. Each compound with the starting concentration for treatment of 100 nM in cells was subjected to 3-fold gradient dilution with 9 concentration points. A blank control containing 0.3% DMSO was set, and double replicate wells as controls were set at each concentration point. The culture was cultured in a 37° C., 5% CO2 cell incubator for 7 days, and the cell culture plate was taken out on day 8.
# MCF-7 intracranial tumor = experiment: Growth inhibition in MCF-7 intracranial tumor model in mice; settings: 250 mg/kg SC once weekly
# Method: Animal information: NPG mice (female, 6-8 weeks, body weight: about 17-29 g) were purchased from Beijing Vitalstar Biotechnology Co., Ltd. The mice were fed in SPF environment and each cage position was individually ventilated.
# Cell culture: The human breast cancer MCF-7 cell line was cultured in vitro in EMEM (cell culture medium) supplemented with 10% fetal bovine serum, 1% Pen Strep and 10 µg/ml recombinant human insulin in a 37° C., 5% CO2 incubator. Conventional digestion treatment with 0.25% trypsin-EDTA digestion solution was carried out twice weekly for passage. When the cell saturation was 80%-90%, and the number reached the requirement, the cells were collected and counted.
# Cell inoculation: 15 µl/(containing 2 × 10^6) MCF-7 cell suspension was inoculated into the brain of mice using a stereotaxic apparatus, a micro-injection pump and a miniature handheld cranial drill, and the mice were subcutaneously inoculated with 17β-estradiol tablets three days before the cell inoculation. On day 8 after cell inoculation, the mice were randomized into groups for administration according to the body weight thereof, and the day of grouping was Day 0.
# 11 mice were in the vehicle group and 8 mice were in the administration group. Mice in all groups were continuously administered until the mice died, which were euthanized due to poor state or the end of the experiment.
# The body weight of the mice was measured twice weekly, and the survival status of the mice was observed.
# At the end of the experiment on Day 48, all mice were euthanized.
SMILES,DC50 [1] [nM],Dmax [1] [%],IC50 (MCF7 cells) [nM],Body weight of mice (MCF-7 intracranial tumor),Median survival period (MCF-7 intracranial tumor) [days]
"C[C@@H]1Cc2c([nH]c3ccccc23)[C@@H](c2c(F)cc(N[C@@H]3CN(CCCF)C[C@H]3F)cc2F)N1CC(F)(F)F (stereo in doubt) [Example 5, trans-N-(3,5-difluoro-4-((1S,3R)-3-methyl-2-(2,2,2-trifluoroethyl)-2,3,4,9-tetrahydro-1H-pyridino[3,4-b]indol-1-yl)phenyl)-4-fluoro-1-(3-fluoropropyl)pyrrolidin-3-amine]",0.58,80,2.57,,
"C[C@@H]1CN(CCCF)C[C@H]1Nc1cc(F)c([C@@H]2c3[nH]c4ccccc4c3C[C@@H](C)N2CC(F)(F)F)c(F)c1 (stereo in doubt) [Example 6, trans-N-[3,5-difluoro-4-[(1S,3R)-3-methyl-2-(2,2,2-trifluoroethyl)-1,3,4,9-tetrahydropyridino[3,4-b]indol-1-yl]phenyl]-1-(3-fluoropropyl)-4-methyl-pyrrolidin-3-amine]",0.5,90,2.39,,
"C[C@@H]1Cc2c([nH]c3ccccc23)[C@@H](c2ccc(NC3CCN(CCCF)C3)cn2)N1CC(F)(F)F (stereo partly drawn) [Example 1, N-(1-(3-fluoropropyl)pyrrolidin-3-yl)-6-((1S,3R)-3-methyl-2-(2,2,2-trifluoroethyl)-2,3,4,9-tetrahydro-1H-pyridino[3,4-b]indol-1-yl)pyridine-3-amine]",0.41,106,0.58,,
C[C@@H]1Cc2c([nH]c3ccccc23)[C@@H](c2ccc(N[C@@H]3CCN(CCCF)C3)cn2)N1CC(F)(F)F [Example 2],8.5,92,15,,
"C[C@]12CC[C@@H]3c4ccc(O)cc4C[C@@H](CCCCCCCCC[S+]([O-])CCCC(F)(F)C(F)(F)F)[C@H]3[C@@H]1CC[C@@H]2O (some centres unmarked) [Fulvestrant, reference compound]",,,,continued to lose weight,29.5
